Results taken from patent US8691865B2 (AbbVie Inc., priority 2008, dated 2014).

The compounds below were run against human Cav2.2 (Homo sapiens, UniProt Q00975) (assay: Assessment of calcium channel activity using FLIPR (Ca2+ influx in IMR32 cells)). Settings: not given.
Format: cell-based
In short: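 Human neuroblastoma IMR32 cells were seeded at 1−1.2×10^5 cells/well and cultured 48 h at 37 °C before FLIPR calcium influx measurement. Percent inhibition at each concentration was calculated against the no-inhibitor signal, and IC50 came from sigmoidal dose-response fits.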

human Cav2.2, sequence (Q00975 whole entry): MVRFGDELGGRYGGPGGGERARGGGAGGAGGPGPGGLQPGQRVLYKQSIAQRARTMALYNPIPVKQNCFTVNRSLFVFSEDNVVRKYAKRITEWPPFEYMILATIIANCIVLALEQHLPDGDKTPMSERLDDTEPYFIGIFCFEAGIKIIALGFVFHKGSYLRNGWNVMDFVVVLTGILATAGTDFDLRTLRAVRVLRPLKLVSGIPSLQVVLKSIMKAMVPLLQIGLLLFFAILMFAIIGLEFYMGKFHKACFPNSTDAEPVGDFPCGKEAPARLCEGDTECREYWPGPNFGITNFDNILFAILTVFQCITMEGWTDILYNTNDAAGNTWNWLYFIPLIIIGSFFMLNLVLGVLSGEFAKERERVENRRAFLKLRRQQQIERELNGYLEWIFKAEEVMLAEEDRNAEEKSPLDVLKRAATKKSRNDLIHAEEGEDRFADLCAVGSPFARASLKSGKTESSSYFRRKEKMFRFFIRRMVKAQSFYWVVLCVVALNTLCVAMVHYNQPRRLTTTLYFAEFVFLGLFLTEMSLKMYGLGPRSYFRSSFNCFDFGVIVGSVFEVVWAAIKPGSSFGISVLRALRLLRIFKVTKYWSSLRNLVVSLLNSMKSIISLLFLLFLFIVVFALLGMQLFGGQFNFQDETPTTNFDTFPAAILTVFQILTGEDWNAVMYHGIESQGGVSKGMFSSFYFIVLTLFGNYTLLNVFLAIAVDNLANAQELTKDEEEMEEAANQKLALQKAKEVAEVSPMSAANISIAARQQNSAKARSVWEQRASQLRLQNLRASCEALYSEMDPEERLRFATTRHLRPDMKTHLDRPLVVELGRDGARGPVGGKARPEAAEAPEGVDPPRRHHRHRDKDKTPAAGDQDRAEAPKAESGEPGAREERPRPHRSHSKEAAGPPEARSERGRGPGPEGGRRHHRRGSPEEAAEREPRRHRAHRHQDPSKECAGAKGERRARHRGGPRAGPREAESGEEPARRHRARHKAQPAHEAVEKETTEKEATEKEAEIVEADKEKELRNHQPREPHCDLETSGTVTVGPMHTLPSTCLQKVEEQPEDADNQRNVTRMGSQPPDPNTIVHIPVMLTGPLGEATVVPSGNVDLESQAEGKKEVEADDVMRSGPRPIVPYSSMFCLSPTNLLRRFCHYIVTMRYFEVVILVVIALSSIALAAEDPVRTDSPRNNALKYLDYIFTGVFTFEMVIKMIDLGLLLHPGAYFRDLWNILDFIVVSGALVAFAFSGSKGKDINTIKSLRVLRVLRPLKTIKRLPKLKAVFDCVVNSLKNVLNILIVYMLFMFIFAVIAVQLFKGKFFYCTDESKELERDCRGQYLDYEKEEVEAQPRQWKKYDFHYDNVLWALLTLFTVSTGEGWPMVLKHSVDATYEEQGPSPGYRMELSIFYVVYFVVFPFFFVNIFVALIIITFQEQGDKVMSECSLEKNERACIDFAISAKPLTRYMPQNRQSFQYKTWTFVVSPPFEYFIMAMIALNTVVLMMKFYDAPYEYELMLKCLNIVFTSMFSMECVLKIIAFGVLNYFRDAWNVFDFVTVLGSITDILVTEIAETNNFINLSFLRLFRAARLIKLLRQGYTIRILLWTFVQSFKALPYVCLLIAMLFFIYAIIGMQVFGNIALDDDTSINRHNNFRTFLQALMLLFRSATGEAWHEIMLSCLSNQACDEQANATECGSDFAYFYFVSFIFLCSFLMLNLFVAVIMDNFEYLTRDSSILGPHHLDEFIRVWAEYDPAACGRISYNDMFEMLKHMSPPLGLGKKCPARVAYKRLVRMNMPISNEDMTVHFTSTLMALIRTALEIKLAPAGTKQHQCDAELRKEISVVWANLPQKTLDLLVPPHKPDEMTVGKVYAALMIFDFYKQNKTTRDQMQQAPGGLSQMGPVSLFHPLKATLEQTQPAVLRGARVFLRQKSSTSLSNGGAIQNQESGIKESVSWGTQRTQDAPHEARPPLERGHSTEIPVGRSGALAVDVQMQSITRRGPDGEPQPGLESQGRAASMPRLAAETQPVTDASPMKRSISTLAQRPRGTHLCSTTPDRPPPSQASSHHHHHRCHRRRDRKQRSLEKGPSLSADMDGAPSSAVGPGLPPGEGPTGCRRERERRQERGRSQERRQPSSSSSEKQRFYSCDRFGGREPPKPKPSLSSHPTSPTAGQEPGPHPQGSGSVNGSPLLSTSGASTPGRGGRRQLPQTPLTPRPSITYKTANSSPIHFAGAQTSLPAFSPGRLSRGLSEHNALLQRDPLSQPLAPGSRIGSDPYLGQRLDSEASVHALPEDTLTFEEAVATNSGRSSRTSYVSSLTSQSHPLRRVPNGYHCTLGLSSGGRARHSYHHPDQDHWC
human Cav2.2, sequence (P54289 25-956 partner limits assumed): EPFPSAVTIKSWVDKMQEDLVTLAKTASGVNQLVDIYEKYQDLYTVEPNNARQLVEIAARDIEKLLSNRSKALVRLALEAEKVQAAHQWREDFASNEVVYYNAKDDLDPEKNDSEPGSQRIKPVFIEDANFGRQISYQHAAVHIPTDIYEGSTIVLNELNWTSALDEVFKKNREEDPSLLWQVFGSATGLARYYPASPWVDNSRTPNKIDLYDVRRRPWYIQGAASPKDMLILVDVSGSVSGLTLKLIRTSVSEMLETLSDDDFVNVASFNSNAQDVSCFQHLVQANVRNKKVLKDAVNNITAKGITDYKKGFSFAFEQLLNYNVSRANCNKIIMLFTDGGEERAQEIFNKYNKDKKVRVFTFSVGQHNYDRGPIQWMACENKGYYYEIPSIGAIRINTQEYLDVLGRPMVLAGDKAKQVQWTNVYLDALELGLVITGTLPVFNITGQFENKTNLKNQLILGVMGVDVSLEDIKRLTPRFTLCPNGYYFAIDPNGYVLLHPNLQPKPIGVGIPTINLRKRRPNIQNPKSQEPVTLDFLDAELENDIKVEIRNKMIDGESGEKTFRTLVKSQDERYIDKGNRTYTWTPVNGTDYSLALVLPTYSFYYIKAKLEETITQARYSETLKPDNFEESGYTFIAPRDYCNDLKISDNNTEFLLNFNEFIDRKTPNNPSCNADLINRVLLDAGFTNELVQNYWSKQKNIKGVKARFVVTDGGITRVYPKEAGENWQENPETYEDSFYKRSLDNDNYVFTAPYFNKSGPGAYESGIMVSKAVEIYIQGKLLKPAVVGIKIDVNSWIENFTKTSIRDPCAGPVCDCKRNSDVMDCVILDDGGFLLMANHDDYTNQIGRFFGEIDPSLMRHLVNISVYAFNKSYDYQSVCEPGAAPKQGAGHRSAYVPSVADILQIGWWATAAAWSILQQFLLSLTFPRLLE
human Cav2.2, sequence (P54289 957-1103 partner limits assumed): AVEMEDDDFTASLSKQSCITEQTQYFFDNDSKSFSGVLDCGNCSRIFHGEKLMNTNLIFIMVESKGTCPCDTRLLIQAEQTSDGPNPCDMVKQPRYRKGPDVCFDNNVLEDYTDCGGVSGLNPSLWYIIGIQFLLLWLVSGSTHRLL
human Cav2.2, sequence (P54284 whole entry partner): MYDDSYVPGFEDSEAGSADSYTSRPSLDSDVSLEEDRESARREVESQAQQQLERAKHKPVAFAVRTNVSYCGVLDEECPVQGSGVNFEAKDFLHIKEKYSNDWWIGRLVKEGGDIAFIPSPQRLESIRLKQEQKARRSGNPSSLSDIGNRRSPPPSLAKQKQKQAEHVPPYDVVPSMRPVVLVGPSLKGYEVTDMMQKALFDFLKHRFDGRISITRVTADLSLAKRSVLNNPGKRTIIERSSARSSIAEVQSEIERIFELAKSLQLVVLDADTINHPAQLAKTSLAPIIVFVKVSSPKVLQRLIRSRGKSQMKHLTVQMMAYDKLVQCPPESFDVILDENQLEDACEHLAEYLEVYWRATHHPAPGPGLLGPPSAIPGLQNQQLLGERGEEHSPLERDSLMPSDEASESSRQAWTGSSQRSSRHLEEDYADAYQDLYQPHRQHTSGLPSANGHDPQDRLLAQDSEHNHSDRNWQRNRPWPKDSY

IC50 [µM] | Compound
3.59 | CC(C)NCC(=O)N[C@H]1CC[C@@H]2CN(c3ccc(C(F)(F)F)cc3)C[C@@H]21 [Example 761, N^2-isopropyl-N-{(3aR,4S,6aS)-2-[4-(trifluoromethyl)phenyl]octahydrocyclopenta[c]pyrrol-4-yl}glycinamide]
> 30 | CCC[C@H](NC(C)C)C(=O)N[C@H]1CC[C@@H]2CN(Cc3ccccc3)C[C@@H]21 [Example 494, N^1-[(3aR,4S,6aS)-2-benzyloctahydrocyclopenta[c]pyrrol-4-yl]-N^2-isopropyl-L-norvalinamide]
1.02 | CCC[C@H](NC)C(=O)N[C@H]1CC[C@@H]2CN(c3cccc(C(F)(F)F)n3)C[C@@H]21 [Example 588, N^2-methyl-N-{(3aR,4S,6aS)-2-[6-(trifluoromethyl)pyridin-2-yl]octahydrocyclopenta[c]pyrrol-4-yl}-L-norvalinamide]
3.73 | CN[C@@H](CC(C)C)C(=O)N[C@H]1CC[C@@H]2CN(c3cccc(C)c3)C[C@@H]21 [Example 636, N^2-methyl-N-[(3aR,4S,6aS)-2-(3-methylphenyl)octahydrocyclopenta[c]pyrrol-4-yl]-L-leucinamide]
1.32 | O=C(N[C@H]1CC[C@@H]2CN(c3cccc(C(F)(F)F)n3)C[C@@H]21)c1ccccc1F [Example 563, 2-fluoro-N-{(3aR,4S,6aS)-2-[6-(trifluoromethyl)pyridin-2-yl]octahydrocyclopenta[c]pyrrol-4-yl}benzamide]
> 30 | CC[C@H](C)[C@H](NC)C(=O)N[C@H]1CC[C@@H]2CN(Cc3ccccc3)C[C@@H]21 [Example 353, N^1-[(3aR,4S,6aS)-2-benzyloctahydrocyclopenta[c]pyrrol-4-yl]-N^2-methyl-L-isoleucinamide]
2.16 | FC(F)(F)c1cccc(N2C[C@H]3CC[C@H](NCc4nc(-c5ccccc5)[nH]c4Cl)[C@H]3C2)n1 [Example 726, (3aR,4S,6aS)-N-[(5-chloro-2-phenyl-1H-imidazol-4-yl)methyl]-2-[6-(trifluoromethyl)pyridin-2-yl]octahydrocyclopenta[c]pyrrol-4-amine]
> 9 | CN[C@H]1CC[C@@H]2CN(S(=O)(=O)c3ccc(C(F)(F)F)cc3)C[C@@H]21 [Example 301, (3aR,4S,6aS)-N-methyl-2-{[4-(trifluoromethyl)phenyl]sulfonyl}octahydrocyclopenta[c]pyrrol-4-amine]
1.45 | NC1(C(=O)N[C@H]2CC[C@@H]3CN(c4cccc(C(F)(F)F)n4)C[C@@H]32)CCCC1 [Example 594, 1-amino-N-{(3aR,4S,6aS)-2-[6-(trifluoromethyl)pyridin-2-yl]octahydrocyclopenta[c]pyrrol-4-yl}cyclopentanecarboxamide]
2.55 | O=S(=O)(N[C@H]1CC[C@@H]2CN(c3cccc(C(F)(F)F)n3)C[C@@H]21)c1cccc(F)c1 [Example 702, 3-fluoro-N-{(3aR,4S,6aS)-2-[6-(trifluoromethyl)pyridin-2-yl]octahydrocyclopenta[c]pyrrol-4-yl}benzenesulfonamide]
0.92 | O=C(N[C@H]1CC[C@H]2CN(Cc3ccccc3)C[C@H]21)C(c1ccccc1)C1CCCC1 (relative stereo) [Example 7, N-[(3aS*,4S*,6aR*)-2-benzyloctahydrocyclopenta[c]pyrrol-4-yl]-2-cyclopentyl-2-phenylacetamide]
> 30 | CN[C@@H](CC(C)(C)C)C(=O)N[C@H]1CC[C@@H]2CN(Cc3ccccc3)C[C@@H]21 [Example 355, N^1-[(3aR,4S,6aS)-2-benzyloctahydrocyclopenta[c]pyrrol-4-yl]-N^2,4-dimethyl-L-leucinamide]
0.82 | COc1cccc2[nH]cc(CN[C@H]3CC[C@@H]4CN(c5cccc(C(F)(F)F)n5)C[C@@H]43)c12 [Example 689, (3aR,4S,6aS)-N-[(4-methoxy-1H-indol-3-yl)methyl]-2-[6-(trifluoromethyl)pyridin-2-yl]octahydrocyclopenta[c]pyrrol-4-amine]
> 22.5 | CS(=O)(=O)N1CCCC[C@H]1C(=O)N[C@@H]1CC[C@H]2CN(Cc3ccccc3)C[C@H]21 [Example 514, (2S)-N-[(3aS,4R,6aR)-2-benzyloctahydrocyclopenta[c]pyrrol-4-yl]-1-(methylsulfonyl)piperidine-2-carboxamide]
1.13 | CN[C@@H](CC(C)C)C(=O)N[C@H]1CC[C@@H]2CN(c3ccc(F)c(C(F)F)c3)C[C@@H]21 [Example 769, N-{(3aR,4S,6aS)-2-[3-(difluoromethyl)-4-fluorophenyl]octahydrocyclopenta[c]pyrrol-4-yl}-N^2-methyl-L-leucinamide]
1.69 | CC(C)(C)C[C@@H](C(=O)N[C@H]1CC[C@@H]2CN(S(=O)(=O)c3ccc(C(F)(F)F)cc3)C[C@@H]21)N(C1CC1)C1CC1 [Example 500, N^2,N^2-dicyclopropyl-4-methyl-N^1-((3aR,4S,6aS)-2-{[4-(trifluoromethyl)phenyl]sulfonyl}octahydrocyclopenta[c]pyrrol-4-yl)-L-leucinamide]
1.52 | O=C(N[C@H]1CC[C@@H]2CN(c3cccc(C(F)(F)F)n3)C[C@@H]21)[C@H](O)C(F)(F)F [Example 585, (2S)-3,3,3-trifluoro-2-hydroxy-N-{(3aR,4S,6aS)-2-[6-(trifluoromethyl)pyridin-2-yl]octahydrocyclopenta[c]pyrrol-4-yl}propanamide]
3.34 | CN[C@@H](CC(C)C)C(=O)N[C@H]1CC[C@@H]2CN(c3ccccc3C)C[C@@H]21 [Example 630, N^2-methyl-N-[(3aR,4S,6aS)-2-(2-methylphenyl)octahydrocyclopenta[c]pyrrol-4-yl]-L-leucinamide]
3.54 | O=S(=O)(Cc1ccc(Cl)cc1)N[C@H]1CC[C@@H]2CN(c3cccc(C(F)(F)F)n3)C[C@@H]21 [Example 717, 1-(4-chlorophenyl)-N-{(3aR,4S,6aS)-2-[6-(trifluoromethyl)pyridin-2-yl]octahydrocyclopenta[c]pyrrol-4-yl}methanesulfonamide]
4.22 | CN[C@@H](CC(C)C)C(=O)N[C@H]1CC[C@@H]2CN(c3cccc(F)c3)C[C@@H]21 [Example 629, N-[(3aR,4S,6aS)-2-(3-fluorophenyl)octahydrocyclopenta[c]pyrrol-4-yl]-N^2-methyl-L-leucinamide]
> 30 | CCC[C@H](NC)C(=O)N[C@@H]1CC[C@@H]2CN(Cc3ccccc3)C[C@@H]21 [Example 363, N^1-[(3aR,4R,6aS)-2-benzyloctahydrocyclopenta[c]pyrrol-4-yl]-N^2-methyl-L-norvalinamide]
0.5 | CC(C)(C)CCN[C@H]1CC[C@@H]2CN(c3cccc(C(F)(F)F)n3)C[C@@H]21 [Example 611, (3aR,4S,6aS)-N-(3,3-dimethylbutyl)-2-[6-(trifluoromethyl)pyridin-2-yl]octahydrocyclopenta[c]pyrrol-4-amine]
> 16.4 | CN[C@H](C(=O)N[C@@H]1CC[C@H]2CN(Cc3ccc(F)cc3)C[C@H]21)C(C)C [Example 369, N^1-[(3aS,4R,6aR)-2-(4-fluorobenzyl)octahydrocyclopenta[c]pyrrol-4-yl]-N^2-methyl-L-valinamide]
4.27 | CC(C)(C)NC(=O)N[C@H]1CC[C@@H]2CN(c3ccc(OC(F)(F)F)cc3)C[C@@H]21 [Example 778, 1-tert-butyl-3-{(3aR,4S,6aS)-2-[4-(trifluoromethoxy)phenyl]octahydrocyclopenta[c]pyrrol-4-yl}urea]

Same assay, conditions: read-out: IC50 (μM) or percent inhibition (* indicates 3 minute incubation, otherwise 60 minute); IC50; 60 minute pre-incubation with compound; IMR32 cells, 80 mM KCl depolarization

IC50 [µM] | Compound
9.36 | O=C(N[C@@H]1CC[C@H]2CN(Cc3cc(C(F)(F)F)cc(C(F)(F)F)c3)C[C@H]21)C(C1CCCCC1)C1CCCCC1 [Example 77, N-{(3aS,4R,6aR)-2-[3,5-bis(trifluoromethyl)benzyl]octahydrocyclopenta[c]pyrrol-4-yl}-2,2-dicyclohexylacetamide]
0.51 | CC(C)C[C@H](C(=O)N[C@@H]1CC[C@H]2CN(Cc3cccc(C(F)(F)F)c3)C[C@H]21)N(C)C(=O)OC(C)(C)C (relative stereo) [Example 150, N^2-(tert-butyloxycarbonyl)-N^2-methyl-N^1-{(3aS*,4R*,6aR*)-2-[3-(trifluoromethyl)benzyl]octahydrocyclopenta[c]pyrrol-4-yl}-D-leucinamide]
1.13 | O=C(N[C@@H]1CC[C@H]2CN(CCCC(c3ccc(F)cc3)c3ccc(F)cc3)C[C@H]21)C(C1CCCCC1)C1CCCCC1 [Example 81, N-{(3aS,4R,6aR)-2-[4,4-bis(4-fluorophenyl)butyl]octahydrocyclopenta[c]pyrrol-4-yl}-2,2-dicyclohexylacetamide]
1.51 | O=C(N[C@H]1CC[C@@H]2CN(Cc3ccccc3)C[C@@H]21)C(c1ccccc1)C1CCCC1 (stereo partly drawn) [Example 34, N-[(3aR,4S,6aS)-2-benzyloctahydrocyclopenta[c]pyrrol-4-yl]-2-cyclopentyl-2-phenylacetamide]
3.59 | CC(C)C(C(=O)N[C@H]1CC[C@@H]2CN(Cc3ccccc3F)C[C@@H]21)c1ccccc1 (stereo partly drawn) [Example 85, N-[(3aR,4S,6aS)-2-(2-fluorobenzyl)octahydrocyclopenta[c]pyrrol-4-yl]-3-methyl-2-phenylbutanamide]
1.65 | CC(C)(C)[C@H](C(=O)N[C@@H]1CC[C@H]2CN(Cc3ccccc3)C[C@H]21)c1ccccc1 [Example 31, (2S)-N-[(3aS,4R,6aR)-2-benzyloctahydrocyclopenta[c]pyrrol-4-yl]-3,3-dimethyl-2-phenylbutanamide]
8.65 | CCC[C@H](NC)C(=O)N[C@@H]1CC[C@H]2CN(S(=O)(=O)c3ccc(F)cc3)C[C@H]21 [Example 403, N^1-{(3aS,4R,6aR)-2-[(4-fluorophenyl)sulfonyl]octahydrocyclopenta[c]pyrrol-4-yl}-N^2-methyl-L-norvalinamide]
> 30 | CN[C@@H](CC(C)C)C(=O)N[C@@H]1CC[C@H]2CN(Cc3ccccc3)C[C@H]21 [Example 165, N^1-[(3aS,4R,6aR)-2-benzyloctahydrocyclopenta[c]pyrrol-4-yl]-N^2-methyl-L-leucinamide]

Compound | IC50 [µM]
(3aR,4S,6aS)-N-(1H-pyrrolo[2,3-b]pyridin-2-ylmethyl)-2-[6-(trifluoromethyl)pyridin-2-yl]octahydrocyclopenta[c]pyrrol-4-amine [Example 693] | 1.42
